From patent US20220251081A1, “HETEROBICYCLIC INHIBITORS OF MAT2A AND METHODS OF USE FOR TREATING CANCER” (priority 2019, published 2022)

Columns and labels:
MAT2A homodimer = target: T1, MAT2A homodimer (Homo sapiens, UniProt P31153); assay: Biochemical assay: inhibition of recombinant MAT2A homodimer (phosphate release, PiColorLock Gold); conditions: MAT2A IC50 score; read-out: Enzyme Inhibition
T1 construct: inferred from Ni sepharose purification and imidazole elution; made in house; host or cells: Sf9 insect cells, recombinant baculovirus (Bac to Bac, pFASTBAC1 vector)
How it was run: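 Baculovirus/Sf9-expressed, Ni-purified MAT2A at 4 μg/mL in pH 8.0 Tris/KCl/MgCl2/EDTA/BSA buffer, preincubated with compound 60 min at 25 °C. Started with ATP and L-methionine substrate mix (500 μM and 40 μM, stock in mix), 60 min at 25 °C; released phosphate by PiColorLock Gold against a phosphate standard curve.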

[1] = tested on: SAM in HCT116 human colon carcinoma cell line with deleted MTAP gene; assay: Cellular assay of target engagement (SAM): SAM level by LC-MS/MS after 72 hrs; format: cell-based; conditions: HCT-116, IC50 score, read-out: Cell 72 h SAM Inhibition (MTAP −/−)
Description: Cellular Assay of Target Engagement (SAM)
Measurement of MAT2A activity in cells was made by direct quantitation of the abundance of the product of its enzymatic activity, SAM. Cancer cells were treated with candidate MAT2A inhibitors for a suitable incubation period, and the cells were then lysed using a reagent which quenched any further enzyme activity. Soluble metabolites including SAM were collected and SAM itself was directly measured from the lysate using quantitative LC-MS/MS.
A typical assay was performed using an HCT116 human colon carcinoma cell line which was genetically engineered to delete the MTAP gene (commercially available from Horizon Discovery). This cell line was utilized because it was determined that loss of the MTAP gene predicts sensitivity to MAT2A inhibitors. Cells were plated in 96-well dishes at appropriate cell density. Following 24 hours, cells were then treated with the candidate MAT2A inhibitor. Prior to addition to cells, the compound was first serially diluted in 100% DMSO, typically as a 3-fold serial dilution starting at 500× top dose with 10 dose points including DMSO only control. Compound was then transferred to a working stock plate in cell culture media by adding 5 μL of compound in DMSO to 495 μL of cell culture media. This working stock was then added to cells via a further 5-fold dilution, by adding 25 μL of working stock to 100 μL of cells in culture media. Following compound addition, cells were incubated at 37° C./5% CO2 for 72 hrs.
To quantitate SAM levels following compound treatment, cells were gently washed once in ammonium carbonate buffer (75 mM at pH 7.4), placed on dry ice, and lysed with metabolite extraction buffer (80% cold methanol and 20% water (v/v) with acetic acid at 1M final concentration with 200 ng/mL deuterated d3-SAM as internal control). Following centrifugation at 4° C. at 3,200 rpm for 30 minutes, the supernatant was collected and stored at −80° C. until analysis by Liquid Chromatography with tandem Mass Spectrometry (LC-MS/MS). LC-MS/MS analysis was performed using an API6500 Mass Spectrometer (Sciex, Framingham, Mass., USA) operating in positive ion spray mode and equipped with a Waters UPLC Acquity (Waters, Milford, Mass., USA) BEH Amide column. Multiple Reaction Monitoring data was acquired for SAM and the d3-SAM standard, using a mass transition pair at m/z 399.2→250.1 and 402.2→250.1, respectively. In a typical LC-MS/MS analysis, the initial flow rate was 0.5 ml/min of 25% mobile phase A (acetonitrile and water at 5:95 (v/v) with 1% formic acid and 10 mM ammonium acetate) and 75% mobile phase B (acetonitrile and water at 95:5 (v/v) with 1% formic acid and 10 mM ammonium acetate), 0.2-0.5 minutes with 75%-35% mobile phase B, 25%-65% mobile phase A, at 0.5 min 65% mobile phase A and 35% mobile phase B, 1.0-1.1 minutes with 35%-75% mobile phase B, 65%-25% mobile phase A, at 1.1 min 25% mobile phase A and 75% mobile phase B with a total run time of 1.5 minutes.

HCT116 MTAP-/- = assay: Inhibition of cellular proliferation, 4 days, Cell Titer Glo, HCT116 MTAP-/-; format: cell-based; conditions: Homo sapiens, HCT-116, 96 h, IC50 score, read-out: 4 Day Relative Growth Inhibition (MTAP −/−)
Description: (§1) Assay for Inhibition of Cellular Proliferation
(§2) Test compound impact on cancer cell growth was assessed by treating cancer cells with compound for 4 days and then measuring proliferation using an ATP-based cell proliferation readout (Cell Titer Glo, Promega Corporation).
(§3) In a typical assay an isogenic pair of HCT116 human colon carcinoma cell lines which vary only in MTAP deletion status (HCT116 MTAP +/+ and HCT116 MTAP−/−) were plated in 96-well dishes at appropriate cell density. Following 24 hours, cells were then treated with the candidate MAT2A inhibitor. Prior to addition to cells, the compound was first serially diluted in 100% DMSO, typically as a 3-fold serial dilution starting at 500× top dose with 10 dose points including DMSO only control. Compound was then transferred to a working stock plate in cell culture media by adding 5 μL of compound in DMSO to 495 μL of cell culture media. This working stock was then added to cells via a further 5-fold dilution, by adding 25 μL of working stock to 100 μL of cells in culture media. Following compound addition, cells were incubated at 37° C./5% C02 for 4 days.
(§4) To measure inhibition of cellular proliferation, cells were allowed to equilibrate to room temperature for 30 minutes, and were then treated with 125 μL of Cell Titer Glo reagent. The plate was then covered with aluminum foil and shaken for 15 minutes to ensure complete mixing and full cell lysis. Luminescent signal was then measured using a plate-based luminometer Veritas version 1.9.2 using ATP standard curve to confirm assay reproducibility from run to run. This luminescence measure was converted to a proliferation index by subtracting from each data point the ATP luminescence signal measured from a bank (no cells) well and dividing by the ATP luminescence signal measured in 0.2% DMSO control well adjusted for signal in blank well. Compound activity was then represented as a percentage change in proliferation relative to a within-plate DMSO control against log 10 of compound concentration in molar (M) units.

HCT116 MTAP +/+ = assay: Inhibition of cellular proliferation, 4 days, Cell Titer Glo, HCT116 MTAP+/+; format: cell-based; conditions: Homo sapiens, HCT-116, 96 h, IC50 score, read-out: 4 Day Relative Growth Inhibition (MTAP +/+)
Description: as §1, §2, §3, §4

T1 sequence (P31153 whole entry): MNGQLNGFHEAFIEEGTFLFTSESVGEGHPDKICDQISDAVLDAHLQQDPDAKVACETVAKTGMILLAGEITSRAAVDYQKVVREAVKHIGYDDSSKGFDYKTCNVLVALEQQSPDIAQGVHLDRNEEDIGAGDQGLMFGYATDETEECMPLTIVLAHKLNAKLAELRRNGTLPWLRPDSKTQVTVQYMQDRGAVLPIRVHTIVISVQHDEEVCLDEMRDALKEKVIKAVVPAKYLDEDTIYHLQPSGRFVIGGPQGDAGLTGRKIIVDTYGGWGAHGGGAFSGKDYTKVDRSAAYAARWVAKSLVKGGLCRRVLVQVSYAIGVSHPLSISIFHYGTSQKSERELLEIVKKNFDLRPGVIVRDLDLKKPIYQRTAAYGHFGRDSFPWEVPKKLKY

SMILES | IC50 (MAT2A homodimer) | IC50 [1] | IC50 (HCT116 MTAP-/-) | IC50 (HCT116 MTAP +/+)
CCOc1ccc2cc(-c3ccc4nnn(C)c4c3)c(=O)n(-c3ccc(Cl)cc3)c2n1 [Example 200] | < 100 nM | < 100 nM | < 100 nM | 100 to 1000 nM
CCOc1ccc2cc(-c3ccc4nn(C)nc4c3)c(=O)n(-c3ccc(Cl)cc3)c2n1 [Example 201] | < 100 nM | < 100 nM | < 100 nM | ≥ 1000 nM
CCOc1ccc2cc(-c3ccnc(OC)c3)c(=O)n(-c3ccc(Cl)cc3)c2n1 [Example 202] | < 100 nM | 100 to 1000 nM | 100 to 1000 nM | ≥ 1000 nM
CCOc1ccc2cc(-c3ccc4ncsc4c3)c(=O)n(-c3ccc(Cl)cc3)c2n1 [Example 203] | < 100 nM | < 100 nM | < 100 nM | ≥ 1000 nM
CCOc1ccc2cc(-c3ccn4nccc4c3)c(=O)n(-c3ccc(Cl)cc3)c2n1 [Example 204] | < 100 nM | < 100 nM | < 100 nM | ≥ 1000 nM
CCOc1ccc2cc(-c3ccc4nncn4c3)c(=O)n(-c3ccc(Cl)cc3)c2n1 [Example 205] | < 100 nM | < 100 nM | < 100 nM | ≥ 1000 nM
CCOc1ccc2cc(-c3ccc4nn(CC(C)(C)O)cc4c3)c(=O)n(-c3ccc(OC(F)F)cc3)c2n1 [Example 207] | < 100 nM | < 100 nM | 100 to 1000 nM | 100 to 1000 nM
CCOc1ccc2cc(-c3ccc(=O)n(C)c3)c(=O)n(-c3ccc(OC(F)F)cc3)c2n1 [Example 208] | < 100 nM | < 100 nM | < 100 nM | 100 to 1000 nM
CCOc1ccc2cc(-c3ccc4nnn(C)c4c3)c(=O)n(-c3ccc(OC(F)F)cc3)c2n1 [Example 209] | < 100 nM | < 100 nM | < 100 nM | 100 to 1000 nM
CCOc1ccc2cc(-c3ccc4nccn4c3)c(=O)n(-c3ccc(OC(F)F)cc3)c2n1 [Example 210] | < 100 nM | < 100 nM | < 100 nM | 100 to 1000 nM
CCOc1ccc2cc(-c3ccc4nn(CC(C)(C)O)cc4c3)c(=O)n(-c3ccc(OC(F)F)nc3)c2n1 [Example 213] | < 100 nM | 100 to 1000 nM | 100 to 1000 nM | ≥ 1000 nM
O=c1c(-c2ccc3nncn3c2)cc2ccc(OCC(F)(F)F)nc2n1-c1ccc(Cl)cc1 [Example 214] | < 100 nM | < 100 nM | 100 to 1000 nM | ≥ 1000 nM
CCOc1ccc2cc(-c3ccc4nncn4c3)c(=O)n(-c3ccc(OC(F)F)cc3)c2n1 [Example 216] | < 100 nM | < 100 nM | < 100 nM | ≥ 1000 nM
CCOc1ccc2cc(-c3ccc4nncn4c3)c(=O)n(-c3ccc(OC)cc3)c2n1 [Example 217] | < 100 nM | < 100 nM | < 100 nM | ≥ 1000 nM
O=c1c(-c2ccc3nncn3c2)cc2ccc(OCC(F)F)nc2n1-c1ccc(Cl)cc1 [Example 218] | < 100 nM | < 100 nM | < 100 nM | ≥ 1000 nM

More lines, now with the values ahead:

IC50 (MAT2A homodimer) | IC50 [1] | IC50 (HCT116 MTAP-/-) | IC50 (HCT116 MTAP +/+) | SMILES
< 100 nM | < 100 nM | < 100 nM | 100 to 1000 nM | COc1ccc(-n2c(=O)c(-c3ccc4ncncc4c3)cc3cnc(NCC(F)(F)F)nc32)cc1 [Example 176]
< 100 nM | < 100 nM | ≥ 1000 nM | ≥ 1000 nM | COc1ccc(-n2c(=O)c(-c3ccc4c(c3)OCO4)cc3cnc(NCC(F)(F)F)nc32)cc1 [Example 177]
< 100 nM | 100 to 1000 nM | 100 to 1000 nM | ≥ 1000 nM | COc1ccc(-n2c(=O)c(-c3ccc(=O)n(C)c3)cc3cnc(NCC(F)(F)F)nc32)cc1 [Example 180]
< 100 nM | 100 to 1000 nM | ≥ 1000 nM | ≥ 1000 nM | COc1ccc(-n2c(=O)c(-c3cn[nH]c3)cc3cnc(NCC(F)(F)F)nc32)cc1 [Example 183]
< 100 nM | < 100 nM | 100 to 1000 nM | ≥ 1000 nM | COc1ccc(-n2c(=O)c(-c3ccc4nccnc4c3)cc3cnc(NCC(F)(F)F)nc32)cc1 [Example 185]
< 100 nM | < 100 nM | 100 to 1000 nM | ≥ 1000 nM | COc1ccc(-n2c(=O)c(-c3ccc4nnccc4c3)cc3cnc(NCC(F)(F)F)nc32)cc1 [Example 186]
< 100 nM | 100 to 1000 nM | 100 to 1000 nM | ≥ 1000 nM | COc1ccc(-n2c(=O)c(-c3cnn(C)c3)cc3cnc(NCC(F)(F)F)nc32)cc1 [Example 187]
< 100 nM | < 100 nM | 100 to 1000 nM | ≥ 1000 nM | COc1ccc(-n2c(=O)c(-c3ccc4ncsc4c3)cc3cnc(NCC(F)(F)F)nc32)cc1 [Example 188]
< 100 nM | 100 to 1000 nM | 100 to 1000 nM | ≥ 1000 nM | COc1ccc(-n2c(=O)c(-c3ccc4ncoc4c3)cc3cnc(NCC(F)(F)F)nc32)cc1 [Example 189]
< 100 nM | < 100 nM | < 100 nM | 100 to 1000 nM | COc1ccc(-n2c(=O)c(-c3ccc4nncn4c3)cc3ccc(OCC(F)F)nc32)cc1 [Example 194, 3-([1,2,4]triazolo[4,3-a]pyridin-6-yl)-7-(2,2-difluoroethoxy)-1-(4-methoxyphenyl)-1,8-naphthyridin-2(1H)-one]
< 100 nM | < 100 nM | < 100 nM | 100 to 1000 nM | CCOc1ccc2cc(-c3ccc4ncn(C)c4c3)c(=O)n(-c3ccc(Cl)cc3)c2n1 [Example 195]
< 100 nM | < 100 nM | 100 to 1000 nM | 100 to 1000 nM | CCOc1ccc2cc(-c3ccc4nn(CC(C)(C)O)cc4c3)c(=O)n(-c3ccc(Cl)cc3)c2n1 [Example 196]
< 100 nM | < 100 nM | < 100 nM | ≥ 1000 nM | CCOc1ccc2cc(-c3ccc4nccn4c3)c(=O)n(-c3ccc(Cl)cc3)c2n1 [Example 197]
< 100 nM | < 100 nM | 100 to 1000 nM | ≥ 1000 nM | CCOc1ccc2cc(-c3ccc(=O)n(C)c3)c(=O)n(-c3ccc(Cl)cc3)c2n1 [Example 199]
